The supplement of paper PMC10307832

Columns and labels:
Assay in all cases: relative viability (nuclei count vs DMSO), 5 days (fraction); higher = more cells survive
Apatinib + Navitoclax = compound: N#CC1(c2ccc(NC(=O)c3cccnc3NCc3ccncc3)cc2)CCCC1 [Apatinib] + CC1(C)CCC(c2ccc(Cl)cc2)=C(CN2CCN(c3ccc(C(=O)NS(=O)(=O)c4ccc(N[C@H](CCN5CCOCC5)CSc5ccccc5)c(S(=O)(=O)C(F)(F)F)c4)cc3)CC2)C1 [Navitoclax] (partner 0.5 µM)
Procedure, shortened: (§1)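 Lung cancer cell lines were seeded in 1536-well plates and dosed by pin tool the next day, with either a single drug or a fixed anchor-drug dose combined with five library-drug doses (not always all listed) spaced in √10 steps. Five days later, one step fixed the cells and stained their nuclei (final 0.05% Triton X-100, 1% formaldehyde, 1 ug/ml Hoechst), and nuclei were counted on 4× images. Relative viability is the nuclei count in treated wells divided by the count in vehicle wells, and each value is the median of duplicate plates.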

Apatinib + Crizotinib = compound: N#CC1(c2ccc(NC(=O)c3cccnc3NCc3ccncc3)cc2)CCCC1 [Apatinib] + C[C@@H](Oc1cc(-c2cnn(C3CCNCC3)c2)cnc1N)c1c(Cl)ccc(F)c1Cl [Crizotinib] (partner 1 µM)
Procedure, shortened: as §1

Apatinib + Pemetrexed = compound: N#CC1(c2ccc(NC(=O)c3cccnc3NCc3ccncc3)cc2)CCCC1 [Apatinib] + Nc1nc2[nH]cc(CCc3ccc(C(=O)N[C@@H](CCC(=O)O)C(=O)O)cc3)c2c(=O)[nH]1 [Pemetrexed] (partner 0.2 µM)
Procedure, shortened: as §1

Metformin + Tozasertib = compound: CN(C)C(=N)NC(=N)N [Metformin] + Cc1cc(Nc2cc(N3CCN(C)CC3)nc(Sc3ccc(NC(=O)C4CC4)cc3)n2)n[nH]1 [Tozasertib] (partner 0.1 µM)
Procedure, shortened: as §1

Cell Line	relative viability (Apatinib + Navitoclax; first compound 0.08 µM)	relative viability (Apatinib + Navitoclax; first compound 0.253 µM)	relative viability (Apatinib + Navitoclax; first compound 0.8 µM)	relative viability (Apatinib + Navitoclax; first compound 2.53 µM)	relative viability (Apatinib + Navitoclax; first compound 8 µM)	relative viability (Apatinib + Crizotinib; first compound 0.08 µM)	relative viability (Apatinib + Crizotinib; first compound 0.253 µM)	relative viability (Apatinib + Crizotinib; first compound 0.8 µM)	relative viability (Apatinib + Crizotinib; first compound 2.53 µM)	relative viability (Apatinib + Crizotinib; first compound 8 µM)	relative viability (Apatinib + Pemetrexed; first compound 0.08 µM)	relative viability (Apatinib + Pemetrexed; first compound 0.253 µM)	relative viability (Apatinib + Pemetrexed; first compound 0.8 µM)	relative viability (Apatinib + Pemetrexed; first compound 2.53 µM)	relative viability (Apatinib + Pemetrexed; first compound 8 µM)	relative viability (Metformin + Tozasertib; first compound 10 µM)	relative viability (Metformin + Tozasertib; first compound 31.62 µM)	relative viability (Metformin + Tozasertib; first compound 100 µM)	relative viability (Metformin + Tozasertib; first compound 316.23 µM)	relative viability (Metformin + Tozasertib; first compound 1000 µM)
HCC-44	0.961	1.05	0.979	0.946	0.892	0.807	0.858	0.779	0.716	0.705	0.677	0.626	0.616	0.63	0.521	0.971	0.931	1.06	0.761	0.757
HOP-62	1.04	1.01	1.01	0.859	0.878	0.989		0.868	0.935	0.654	0.333	0.31	0.289	0.244	0.16	0.283	0.373	0.316	0.285	0.289
NCI-H358						0.682	0.586	0.525	0.54	0.43	0.173	0.165	0.233	0.163	0.128	0.0917	0.104	0.101	0.0897	0.0865
NCI-H596	1.03	1.11	0.927	0.945	0.857	0.923	1.12	1.07	0.861	0.969	0.541	0.539	0.494	0.405	0.442	0.955	0.93	1.1	0.985	0.938
ABC-1							1.42	1.11	0.932	0.614						0.223	0.163	0.172	0.158	0.189
SW 900											0.486	0.467	0.427	0.379	0.321	0.476	0.482	0.658	0.461	0.657
NCI-H1734	0.852	0.81	0.861	0.708	0.685	0.67	0.812	0.76	0.596	0.579	0.452	0.456	0.429	0.403	0.255	0.246	0.242	0.267	0.268	0.29
HARA	1.15	1.18	1.1	1.13	1.07	1.04	0.944	1.05	1.05	0.806	0.246	0.227	0.21		0.173		0.0842	0.14	0.101	0.105
NCI-H1703	0.996	0.731	0.357	0.188	0.205	0.359	0.464	0.347	0.194	0.15										
A549	1.18	1.34	1.22	1.19	1.02	0.818	0.917	0.737	0.61	0.56										
NCI-H1915	0.838	0.819	0.778	0.783	0.732	0.945	0.864	0.855	0.819	0.78	0.503	0.493	0.512	0.408	0.392		0.452	0.466	0.416	0.489
NCI-H1355	0.944	0.929	0.848	0.815	0.65	1.04	1.03	1.03	0.943	0.815	1.09	1.01	1	0.898	0.918	0.613	0.654	0.684	0.504	0.757
NCI-H1650	1.39	1.41	1.18	1.1	1.06	1.13	1.03	0.9	0.92	0.842	0.386	0.347	0.325	0.37	0.378	0.433	0.443	0.496	0.442	0.364
HCC-78	0.884	0.631	0.821	0.58	0.648	0.328	0.325	0.326	0.347	0.346	0.871	0.934	0.854	0.588	0.909	0.637	0.571	0.487	0.4	0.629
NCI-H1666	1.02	0.963	1.07	0.815	1.04	1.15	1.28	0.985	1.14	0.718	0.874	0.858	0.842	0.802	0.672	0.625	0.649	0.703	0.711	0.725
HCC-15	0.733	0.718	0.681	0.608	0.653	0.85	0.814	0.811	0.799	0.717	0.245	0.225	0.217	0.192	0.167		0.489	0.395	0.412	0.521
EKVX	0.882	0.946	0.98	0.888	0.826	0.793	1.06	0.941	0.654	0.671	0.434	0.357	0.379	0.342	0.346	0.337	0.519	0.443		0.391
NCI-H3122	1.07	0.965	1.01	1.08	1.04	0.3	0.246	0.256	0.27	0.328	0.212	0.192	0.199	0.202	0.188	0.248	0.31	0.388	0.255	0.209
